Here are results for 4 compounds from ChEMBL document CHEMBL1132801, “NMR analysis of tautomerisms of active pinacidil-type potassium channel openers and a less active one” (2000).

The test system of this test is Canis familiaris. Kind of test: The compound was tested for its antihypertensive activity in dogs after intravenous injection. Format: functional, Canis lupus familiaris.
In turn, `CCC(C)(C)/N=C(\NC#N)Nc1cc(Cl)cc(C#N)c1` gave a Relative activity of 2.04. Under `CC(N/C(=C\[N+](=O)[O-])Nc1ccccc1)C(C)(C)C` (centres undefined) stands 1.82; under `CCC(C)(C)N/C(=C\C#N)Nc1cc(Cl)cc(C#N)c1`, less than 0.3. The figure for `CC(N/C(=N\C#N)Nc1ccncc1)C(C)(C)C` (centres undefined) [PINACIDIL ANHYDROUS] is 1.
